Reference: patent US20070197543A1, “Use of derivatives of 2, 5-dihydroxyb enzene-sulphonic acids in the elaboration of a medicinal product to enhance the effect of other drugs used for the treatment of erectile dysfunction” (Laboratorios del Dr. Esteve, S.A., priority 2001, published 2007)

Key:
[1] = system: resistance arteries of the human penis; assay: Relaxation of noradrenaline-contracted human penile resistance arteries induced by sodium nitroprussiate (myograph); conditions: 10 μM; arteries contracted with 1 μM noradrenaline; FIG. 1
Description: (§1) To study the enhancing effect of medicinal products used to facilitate penile erection in man a series of studies were carried out of the resistance arteries of the human penis, obtained from patients submitted to penile prosthesis implantation.
(§2) Specimens of human cavernous bodies of the penis were obtained from patients with impotence while these were intervened for prosthetic implantation, as described previously (Gupta et al.; Br. J. Pharmacol., 116: 2201, 1995). The tissues were deposited in M-400 solution (pH 7.4; 400 mOsm/kg. Composition in w/v: 4.19% manitole, 0.2% KH2PO4, 0.97% K2HPO4.3 H2O, 0.11% KCl and 0.08% NaHCO3) at 4° C. at the moment of explant and were transported to the laboratory to be used within the following 16 h.
(§3) The resistance arteries of the penis, helicine arteries (with a luminal diameter of 150-400 μm), which are terminal branches of the deep arteries of the penis, were dissected carefully removing the surrounding trabecular tissue and were cut into 2 mm long arterial segments that were arranged on two wires of 40 μm diameter in a Halpern-Mulvany myograph (J.P. Trading, Aarhus, Denmark) to record […]. […] The arteries were contracted with 1 μM of noradrenaline and their relaxation responses were assessed after adding to the cavities increasing amounts of the different compounds. […]

[2] = system: resistance arteries of the human penis; assay: Relaxation of noradrenaline-contracted human penile resistance arteries induced by sildenaphyl (myograph); conditions: 10 μM; arteries contracted with 1 μM noradrenaline; FIG. 2
Description: as §1, §2, §3

[3] = system: nitrergic terminations in resistance arteries of the human penis; assay: Relaxation of human penile resistance arteries induced by transmural electrical stimulation of nitrergic terminations (myograph)
Description: as §1, §2, §3

[4] = patients; variable in different patients; cited from earlier work

| SMILES | effect on the relaxation produced by different concentrations of sodium nitroprussiate (SNP) [1] | effect on the relaxation produced by different concentrations of sildenaphyl [2] | effect on the effects of 10 nM of sildenaphyl on the relaxation produced by electrical stimulation ([3]; 10 μM combined with 10 nM sildenaphyl, increasing frequencies, FIG. 4) | effect on the relaxation produced by electrical stimulation at increasing frequencies of the nitrergic terminations ([3]; 10 μM, TES 0.5, 1, 2 and 6 Hz, FIG. 3) | therapeutic response [4] [%] |
| --- | --- | --- | --- | --- | --- |
| O=S(=O)([O-])c1cc(O)ccc1O.O=S(=O)([O-])c1cc(O)ccc1O.[Ca+2] [Calcium dobesylate, Calcium 2,5-dihidroxybenzenosulphonate] | increases, in a statistically significant manner, the relaxation | increases, in a statistically significant manner, the relaxation | increases, in a statistically significant manner, the effects of 10 nM of sildenaphyl | increases, in a statistically significant manner, the relaxation | – |
| CCCc1nn(C)c2c(=O)[nH]c(-c3cc(S(=O)(=O)N4CCN(C)CC4)ccc3OCC)nc12 [sildenaphyl] | – | – | – | – | ≤ 50 |
